In patent US20260166159A1, “KRAS G12D DEGRADATION AGENT, AND PREPARATION METHOD AND USE THEREFOR” (LEADINGTAC PHARMACEUTICAL (SHAOXING) CO., LTD., priority 2022, published 2026):

Assays:
[1] = tested on: KRAS G12D mutant human gastric cancer cell AGS; experiment: 3D cell proliferation inhibition assay, AGS; type: cell-based; details: 168 h, 7 days, CTG
Procedure, shortened: (§1)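 Compound dilutions are added to low-adsorption wells, then cells at 5×10^2 cells/well. Final compound range is 10000–0.026 nM, with 0.2% DMSO. After 7 days at 37 °C with 5% CO2, CTG reagent is added and luminescence is read 60 min later. IC50 is fitted from inhibition relative to DMSO and medium controls.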

[2] = tested on: KRAS G12D mutant human pancreatic cancer cell HPAC; experiment: 3D cell proliferation inhibition assay, HPAC; type: cell-based; details: 168 h, 7 days, CTG
Procedure, shortened: as §1

[3] = tested on: KRAS G12D mutant human pancreatic cancer cell Panc 04.03; experiment: 3D cell proliferation inhibition assay, Panc 04.03; type: cell-based; details: 168 h, Panc 04.03, 7 days, CTG
Procedure, shortened: as §1

KRAS-G12D [4] = target: T1, KRAS-G12D (Homo sapiens, UniProt P01116, G12D); experiment: KRAS-G12D degradation assay (Western Blot), A-427 cells; type: cell-based; details: A427 cells, 24 h; for Dmax: A-427
T1 construct: endogenous in cells; host or cells: A-427 (ATCC), AGS, AsPc-1, Panc 04.03
Procedure, shortened: (§2)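 Western blotting of lysates (5 μg protein) quantified KRAS against a β-actin reference after 24 h exposure to compound at final 0.03–3000 nM in 0.25% DMSO. Cells were A-427, AGS, AsPc-1 or Panc 04.03, all KRAS G12D, at 5×10^5/well. Degradation versus control yielded DC50 and Dmax.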

[5] = tested on: KRAS G12D mutant human lung cancer cell A427; experiment: 3D cell proliferation inhibition assay, A427; type: cell-based; details: A-427, 168 h, A427, 7 days, CTG
Procedure, shortened: as §1

KRAS-G12D [6] = target: T1, KRAS-G12D; experiment: KRAS-G12D degradation assay (Western Blot), AGS cells; type: cell-based; details: 24 h
Method: (§3) The degradation effects of the compounds on KRAS-G12D were investigated on KRAS G12D mutant human lung cancer cell A-427 (ATCC), KRAS G12D mutant human gastric cancer cell AGS, KRAS G12D mutant human metastatic pancreatic cancer cell AsPc-1, and KRAS G12D mutant human pancreatic adenocarcinoma cell Panc 04.03. The specific procedures were as follows: 0.95 mL of cells were seeded into each well of a 24-well cell culture plate to achieve a cell density of 5×10^5 cells/well; and the cell plate was incubated in an incubator at 37° C. with 5% CO2 overnight. Then 50 μL of the compound solution after dilution was added to each of the wells with the corresponding cells, so that the final concentration of the compound was in a range of 0.03-3000 nM. The final concentration of DMSO was 0.25%. After the compounds were added, the cell plate was incubated in the incubator at 37° C. with 5% CO2 for 24 h. The culture medium in the 24-well cell culture plate was removed, and the plate was washed twice with 1×PBS (KeyGEN). 120 μL of RIPA (strong) lysis buffer (Beyotime) supplemented with 1 mM phenylmethylsulfonyl fluoride, a protease inhibitor mixture (Beyotime), and a protease phosphatase inhibitor mixture (Beyotime) was added to lyse adherent A-427 cells at the bottom of the cell culture plate. After the plate was left to stand on ice for 30 min, the protein lysate in each well was transferred to a 1.5 mL centrifuge tube and centrifuged at 15000 g for 20 min at 4° C. The cell lysate supernatants after centrifugation were cryopreserved in a refrigerator at −80° C. for later use.
(§4) After the samples of the cell lysate supernatants that had been prepared were thawed from the refrigerator at −80° C., the total protein concentrations of the cell lysates were determined using a BCA protein quantification kit (Tiangen). The total protein concentrations of the samples were then adjusted to 0.5 μg/μL with PBS and 5×SDS-PAGE protein loading buffer (Beyotime), and the samples were incubated in a water bath at 100° C. for 15 min. The samples were then incubated in an ice bath for 5 min and centrifuged at 14000 g for 1 min at 4° C., and the supernatants were mixed well as loading samples for the Western Blot assay. The samples were loaded into wells of a 10% precast gel (KeyGEN) with a loading volume of 10 μL (total protein: 5 μg), a sufficient Tris-MOPS-SDS running buffer (Adamas) was added, and then electrophoresis was performed at a constant voltage of 120 V for 55 min. After the electrophoresis, the proteins on the gel were transferred to PVDF membranes at a constant current of 250 mA for 55 min. After the membrane transfer, the PVDF membranes were incubated in 1× Quick Block blocking buffer (Beyotime) at room temperature for 30 min. After the blocking, the PVDF membranes were separately incubated at 4° C. overnight with the KRAS antibody (Abcam) diluted in a ratio of 1:1000 and the […] antibody (Abcam) diluted in a ratio of 1:2000 in 5% BSA as the diluent, and then washed with 1×TBST buffer (2.4 g of Tris, 8.8 g of NaCl, 1.5 mL of Tween 20, with pH adjusted to 7.4, with the volume brought to 1 L) 3 times for 10 min/time. The membranes were incubated with a secondary antibody (Abcam) diluted in 5% BSA at room temperature for 2 h, and then washed with 1×TBST buffer 3 times for 10 min/time. Finally, the membranes were incubated with Clarity Western ECL Substrate (BIO-RAD) for 5 min for luminescence and color development, and a ChemiScope 6200 Touch chemiluminescence imaging system (Clinx) was used for color development and protein mapping. Gray value analysis of the protein maps was performed using the chemiluminescence analysis software (Clinx). The gray correction value for each sample was calculated using the formula: gray correction value=(gray value of target protein/gray value of corresponding internal reference)×10^3. Then degradation rates were calculated by comparison with the gray correction value of the control group. […]

KRAS-G12D [7] = target: T1, KRAS-G12D; experiment: KRAS-G12D degradation assay (Western Blot), Panc 04.03 cells; type: cell-based; details: 24 h
Method: as §3, §4

[8] = tested on: KRAS G12D mutant human metastatic pancreatic cancer cell AsPc-1; experiment: 3D cell proliferation inhibition assay, AsPc-1; type: cell-based; details: ASPC1, 168 h, AsPc-1, 7 days, CTG
Procedure, shortened: as §1

KRAS-G12D [9] = target: T1, KRAS-G12D; experiment: KRAS-G12D degradation assay (Western Blot), AsPc-1 cells; type: cell-based; details: for DC50: 24 h; for Dmax: ASPC1, 24 h
Procedure, shortened: as §2

[10] = target: T2, Human KRAS G12D 6His-tagged (Homo sapiens, UniProt P01116, G12D); experiment: KRAS-G12D/GTP binding assay (HTRF); details: class symbols
T2 construct: purchased PerkinElmer
Procedure, shortened: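 Compounds at 0.02-5000 nM final (0.5% DMSO) were tested for blocking GTP Red tracer binding to His-tagged KRAS G12D, detected by Eu-cryptate anti-His antibody after 1 h, 25° C. Inhibition taken from 665/620 nm ratio relative to control, then fitted to give IC50.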

T1 sequence (P01116 1-188 isoform P01116-2 G12D): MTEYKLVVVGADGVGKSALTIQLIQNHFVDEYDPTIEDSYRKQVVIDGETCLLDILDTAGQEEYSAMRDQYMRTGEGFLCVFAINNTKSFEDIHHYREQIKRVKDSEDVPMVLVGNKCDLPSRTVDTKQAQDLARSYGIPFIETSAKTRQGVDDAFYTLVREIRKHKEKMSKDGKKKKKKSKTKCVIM
T2 sequence (P01116 1-188 isoform P01116-2 G12D): as above

SMILES	IC50 ([1]; class symbols) [nM]	IC50 [2] [nM]	IC50 ([3]; class symbols) [nM]	DC50 (KRAS-G12D [4]; class symbols) [nM]	Dmax (KRAS-G12D [4]; class symbols) [%]	IC50 ([5]; class symbols) [nM]	DC50 (KRAS-G12D [6]) [nM]	Dmax (KRAS-G12D [6]) [%]	DC50 (KRAS-G12D [7]) [nM]	Dmax (KRAS-G12D [7]) [%]	IC50 ([8]; class symbols) [nM]	DC50 (KRAS-G12D [9]) [nM]	Dmax (KRAS-G12D [9]) [%]	IC50 [10] [nM]	IC50 ([1]; numeric values) [nM]	IC50 ([3]; numeric values) [nM]	DC50 (KRAS-G12D [4]; numeric values) [nM]	Dmax (KRAS-G12D [4]; numeric values) [%]	IC50 ([5]; numeric values) [nM]	IC50 ([8]; numeric values) [nM]
CCc1cccc2cc(O)cc(-c3ncc4c(N5CC6CCC(C5)N6)nc(OCC5(CN6CCN(CC7CCC8(CC7)CCN(C(=O)c7ccc(Cl)c(N9CCC(=O)NC9=O)c7)CC8)CC6)CC5)nc4c3F)c12 [Example 50, 1-(5-(9-((4-((1-(((4-(3,8-diazabicyclo[3.2.1]octan-3-yl)-7-(8-ethyl-3-hydroxynaphthalen-1-yl)-8-fluoropyrido[4,3-d]pyrimidin-2-yl)oxy)methyl)cyclopropyl)methyl)piperazin-1-yl)methyl)-3-azaspiro [5.5]undecane-3-carbonyl)-2-chlorophenyl)dihydropyrimidine-2,4(1H,3H)-dione]	≤ 50	11.6	≤ 50	≤ 50	80 to 100	≤ 50	1.73	97.3	31.9	99.3	≤ 50	33.1	100	–	–	–	–	–	–	–
CCc1cccc2cc(O)cc(-c3ncc4c(N5CC6CCC(C5)N6)nc(OCC5(CN6CCN(CC7CCC8(CC7)CCN(C(=O)c7ccc(C)c(N9CCC(=O)NC9=O)c7)CC8)CC6)CC5)nc4c3F)c12 [Example 51, 1-(5-(9-((4-((1-(((4-(3,8-diazabicyclo[3.2.1]octan-3-yl)-7-(8-ethyl-3-hydroxynaphthalen-1-yl)-8-fluoropyrido[4,3-d]pyrimidin-2-yl)oxy)methyl)cyclopropyl)methyl)piperazin-1-yl)methyl)-3-azaspiro[5.5]undecane-3-carbonyl)-2-methylphenyl)dihydropyrimidine-2,4(1H,3H)-dione]	≤ 50	4.55	≤ 50	≤ 50	80 to 100	≤ 50	9.87	97.2	23	93.8	≤ 50	4.79	99.4	–	–	–	–	–	–	–
C#Cc1cccc2cc(O)cc(-c3ncc4c(N5CC6CCC(C5)N6)nc(OCC5(CN6CCN(CC7CCC8(CC7)CCN(C(=O)c7ccc(C)c(N9CCC(=O)NC9=O)c7)CC8)CC6)CC5)nc4c3F)c12 [Example 55, 1-(5-(9-((4-((1-(((4-(3,8-diazabicyclo[3.2.1]octan-3-yl)-7-(8-ethynyl-3-hydroxynaphthalen-1-yl)-8-fluoropyrido[4,3-d]pyrimidin-2-yl)oxy)methyl)cyclopropyl)methyl)piperazin-1-yl)methyl)-3-azaspiro[5.5]undecane-3-carbonyl)-2-methylphenyl)dihydropyrimidine-2,4(1H,3H)-dione]	≤ 50	4.28	–	≤ 50	80 to 100	≤ 50	1.91	99.2	4.08	98.6	–	11.1	95.2	≤ 50	–	–	–	–	–	–
Cc1ccc(C(=O)N2CCC3(CCC(CN4CCN(CC5(COc6nc(N7CC8CCC(C7)N8)c7cnc(-c8cc(O)cc(Cl)c8C8CC8)c(F)c7n6)CC5)CC4)CC3)CC2)cc1N1CCC(=O)NC1=O [Example 81, 1-(5-(9-((4-((1-(((4-(3,8-diazabicyclo[3.2.1]octan-3-yl)-7-(3-chloro-2-cyclopropyl-5-hydroxyphenyl)-8-fluoropyrido[4,3-d]pyrimidin-2-yl)oxy)methyl)cyclopropyl)methyl)piperazin-1-yl)methyl)-3-azaspiro[5.5]undecane-3-carbonyl)-2-methylphenyl)dihydropyrimidine-2,4(1H,3H)-dione]	–	4.37	–	–	–	–	2.99	80.3	–	–	–	17.8	98.2	–	5.52	27.8	16.8	76.5	67.1	13
C#Cc1c(F)ccc2cc(O)cc(-c3ncc4c(N5CC6CCC(C5)N6)nc(OC[C@H](C)CN5CCN(CC6CCC7(CC6)CCN(C(=O)c6ccc(OC)c(N8CCC(=O)NC8=O)c6)CC7)CC5)nc4c3F)c12 [Example 90]	–	2.44	–	–	–	–	10.6	98.9	–	–	–	1.87	100	–	0.65	8.82	0.86	95.6	28.3	1.19
[2H]C([2H])([2H])c1ccc(C(=O)N2CCC3(CCC(CN4CCN(C[C@@H](C)COc5nc(N6CC7CCC(C6)N7)c6cnc(-c7cc(O)cc8ccc(F)c(C#C)c78)c(F)c6n5)CC4)CC3)CC2)cc1N1CCC(=O)NC1=O [Example 109, 1-(5-(9-((4-((R)-3-((4-(3,8-diazabicyclo[3.2.1]octan-3-yl)-7-(8-ethynyl-7-fluoro-3-hydroxynaphthalen-1-yl)-8-fluoropyrido[4,3-d]pyrimidin-2-yl)oxy)-2-methylpropyl)piperazin-1-yl)methyl)-3-azaspiro[5.5]undecane-3-carbonyl)-2-(methyl-d3)phenyl)dihydropyrimidine-2,4(1H,3H)-dione]	–	1.62	–	–	–	–	4.8	94.5	–	–	–	0.64	98.8	–	3.98	6.73	–	–	–	1.42
